Assays:
Test in all cases: relative viability (nuclei count vs DMSO), 5 days (fraction); higher = more cells survive
[1] = compound: C#Cc1cccc(Nc2ncnc3cc(OCCOC)c(OCCOC)cc23)c1 [Erlotinib] + Nc1ncn([C@H]2C[C@H](O)[C@@H](CO)O2)c(=O)n1 [Decitabine] (partner 2 µM)
How it was run: (§1)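 For relative viability, nuclei counts in treated wells were divided by those in vehicle wells. Lung cancer cell lines had been pin-tool dosed in 1536-well plates the day after seeding and cultured for 5 days, then fixed and stained in one step (final 0.05% Triton X-100, 1% formaldehyde, 1 ug/ml Hoechst) and imaged at 4×. Doses were one drug alone or a fixed anchor-drug dose plus five library-drug doses (not always all listed) in √10 steps, and values are duplicate-plate medians.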

[2] = compound: O=C(Nc1c[nH]nc1-c1nc2ccc(CN3CCOCC3)cc2[nH]1)NC1CC1 [AT9283] + CC1(C)CCC(c2ccc(Cl)cc2)=C(CN2CCN(c3ccc(C(=O)NS(=O)(=O)c4ccc(N[C@H](CCN5CCOCC5)CSc5ccccc5)c(S(=O)(=O)C(F)(F)F)c4)cc3)CC2)C1 [Navitoclax] (partner 0.5 µM)
How it was run: as §1

[3] = compound: O=C(Nc1c[nH]nc1-c1nc2ccc(CN3CCOCC3)cc2[nH]1)NC1CC1 [AT9283] + CS(=O)(=O)N1CCN(Cc2cc3nc(-c4cccc5[nH]ncc45)nc(N4CCOCC4)c3s2)CC1 [Pictilisib] (partner 1 µM)
How it was run: as §1

[4] = compound: O=C(Nc1c[nH]nc1-c1nc2ccc(CN3CCOCC3)cc2[nH]1)NC1CC1 [AT9283] + O=C(CCCCCCC(=O)Nc1ccccc1)NO [Vorinostat] (partner 1 µM)
How it was run: as §1

[5] = compound: O=C(Nc1c[nH]nc1-c1nc2ccc(CN3CCOCC3)cc2[nH]1)NC1CC1 [AT9283] + NC(=O)Nc1cc(-c2cccc(F)c2)sc1C(=O)N[C@H]1CCCNC1 [AZD7762] (partner 0.2 µM)
How it was run: as §1

Cell Line | relative viability ([1]; first compound 0.02 µM) | relative viability ([1]; first compound 0.2 µM) | relative viability ([1]; first compound 0.6325 µM) | relative viability ([1]; first compound 2 µM) | relative viability ([2]; first compound 0.003 µM) | relative viability ([2]; first compound 0.03 µM) | relative viability ([2]; first compound 0.09487 µM) | relative viability ([2]; first compound 0.3 µM) | relative viability ([3]; first compound 0.003 µM) | relative viability ([3]; first compound 0.03 µM) | relative viability ([3]; first compound 0.09487 µM) | relative viability ([3]; first compound 0.3 µM) | relative viability ([4]; first compound 0.003 µM) | relative viability ([4]; first compound 0.03 µM) | relative viability ([4]; first compound 0.09487 µM) | relative viability ([4]; first compound 0.3 µM) | relative viability ([5]; first compound 0.003 µM) | relative viability ([5]; first compound 0.03 µM) | relative viability ([5]; first compound 0.09487 µM) | relative viability ([5]; first compound 0.3 µM)
COR-L23 | 0.425 | 0.432 | 0.49 | 0.434 | 0.964 | 0.301 | 0.123 | 0.126 | 0.83 | 0.132 | 0.107 | 0.123 | 0.443 | 0.119 | 0.0932 | 0.0899 |  |  |  | 
NCI-H2228 |  |  |  |  | 0.93 | 0.774 | 0.51 | 0.144 | 0.355 | 0.259 | 0.141 | 0.0664 | 0.655 | 0.277 | 0.133 | 0.103 |  |  |  | 
SW 900 | 0.392 | 0.526 | 0.429 | 0.374 |  |  |  |  |  |  |  |  | 0.424 | 0.358 | 0.298 | 0.199 | 0.478 | 1.15 | 0.545 | 0.271
EBC-1 |  |  |  |  | 0.461 | 0.203 | 0.145 | 0.17 | 0.368 | 0.158 | 0.149 | 0.124 |  |  |  |  |  |  |  | 
NCI-H2342 | 0.78 |  | 0.701 | 0.683 |  |  |  |  |  |  |  |  | 0.804 | 0.576 | 0.59 | 0.409 | 0.439 | 0.364 | 0.36 | 0.4
NCI-H1299 |  |  |  |  | 1.09 | 0.927 | 0.363 | 0.304 | 0.731 | 0.238 | 0.116 | 0.112 |  |  |  |  |  |  |  | 
SK-LU-1 | 0.661 | 0.707 | 0.634 | 0.592 | 1.13 | 0.415 | 0.178 | 0.18 | 0.603 | 0.348 | 0.217 | 0.197 | 0.904 | 0.418 | 0.329 | 0.314 |  |  |  | 
ABC-1 |  | 0.962 | 0.923 | 1.12 |  |  |  |  | 0.76 | 0.269 | 0.232 | 0.256 | 1.05 | 0.373 | 0.359 | 0.258 | 0.83 | 0.365 | 1.18 | 0.229
CAL-12T |  |  |  |  | 1.47 | 0.879 | 0.261 | 0.21 | 0.354 | 0.297 | 0.23 | 0.31 | 0.804 | 0.394 | 0.237 | 0.166 | 0.584 | 0.502 | 0.347 | 0.189
NCI-H1648 | 0.433 | 0.512 | 0.491 | 0.39 |  |  |  |  |  |  |  |  | 0.378 | 0.468 | 0.325 | 0.308 | 0.465 | 0.631 | 0.368 | 0.37
NCI-H522 | 0.661 | 0.751 | 0.659 | 0.589 |  |  |  |  |  |  |  |  | 0.782 | 0.549 | 0.527 | 0.376 | 0.626 | 0.582 | 0.399 | 0.37
NCI-H1563 |  |  |  |  |  |  |  |  | 0.572 | 0.606 | 0.585 | 0.54 |  |  |  |  |  |  |  | 
LCLC-103H | 0.765 | 0.688 | 0.716 | 0.639 |  |  |  |  | 0.536 | 0.427 | 0.251 | 0.291 | 0.745 | 0.566 | 0.355 | 0.306 | 0.749 | 0.661 | 0.554 | 0.328
A549 | 0.263 | 0.294 | 0.266 | 0.262 | 1.14 | 0.0945 | 0.0413 | 0.0451 | 0.503 | 0.0938 | 0.0787 | 0.0772 |  |  |  |  |  |  |  | 
IA-LM |  |  |  |  | 0.952 | 0.372 | 0.112 | 0.0779 | 0.379 | 0.271 | 0.143 | 0.143 | 0.927 | 0.624 | 0.144 | 0.111 |  |  |  | 
NCI-H661 | 0.566 |  | 0.551 | 0.384 |  |  |  |  | 0.296 | 0.382 | 0.334 | 0.292 | 0.858 | 0.359 | 0.316 | 0.384 |  |  |  | 
NCI-H2009 | 0.333 | 0.347 | 0.35 | 0.374 | 1.26 | 0.681 | 0.391 | 0.284 | 0.774 | 0.462 | 0.239 | 0.0896 | 0.742 | 0.674 | 0.29 | 0.147 |  |  |  | 
NCI-H650 | 0.34 | 0.313 | 0.303 | 0.307 |  |  |  |  | 0.853 | 0.816 | 0.274 | 0.186 | 0.405 | 0.375 | 0.282 | 0.146 | 0.814 | 0.923 | 0.373 | 0.227
SK-MES-1 | 0.393 | 0.345 | 0.31 | 0.27 | 1.24 | 1.11 | 0.336 | 0.147 | 0.345 | 0.314 | 0.158 | 0.147 | 1.19 | 1.03 | 0.304 | 0.154 |  |  |  | 
NCI-H1650 | 0.331 | 0.365 | 0.509 | 0.421 | 1.34 | 1 | 0.29 | 0.232 | 0.586 | 0.273 | 0.178 | 0.218 | 0.608 | 0.487 | 0.375 | 0.194 |  |  |  | 
SW 1573 |  | 0.511 | 0.495 | 0.576 | 0.868 | 0.508 | 0.117 | 0.117 | 0.453 | 0.251 | 0.2 | 0.127 | 0.835 | 0.211 | 0.165 | 0.133 |  |  |  | 
COR-L 105 | 0.729 | 0.463 | 0.41 | 0.351 | 0.83 | 0.27 | 0.293 | 0.281 | 0.405 | 0.273 | 0.279 | 0.28 | 0.839 | 0.343 | 0.383 | 0.321 |  |  |  | 
NCI-H1792 | 0.634 | 0.482 | 0.505 | 0.477 | 0.637 | 0.569 | 0.248 | 0.187 | 0.215 | 0.334 | 0.0902 | 0.0932 |  |  |  |  | 0.601 | 0.647 | 0.432 | 0.262

— the supplement of paper PMC10307832
